Results: article PMC10708468, “New Dipyrroloquinones from a Plant-Derived Endophytic Fungus Talaromyces sp” (Molecules, 2023)
“Also recorded” adds a separate entry of the source. Where two headings read alike, the source gives them in different places.

Experiments:
[1] = tested on: liver cancer cells Hep G2; test: MTT cytotoxic activity assay, Hep G2; assay type: cell-based; conditions: Homo sapiens
Experimental: (§1) The 3-(4,5-dimethyl-2-thiazolyl)-2,5-diphenyl-2-h-tetrazole ammonium bromide (MTT) experiment was applied to test the cytotoxic activity for 1–6 against human lung cancer cells A549 and liver cancer cells Hep G2. Cells in RPMI-1640 medium (10% FBS, 0.4% penicillin–streptomycin solution) were digested with trypsin and diluted to the concentration of 1 × 10^4 cells/mL. The cell suspensions were diluted and added into a 96-well microtiter plate with 200 µL per well. The plate was then incubated in a CO2 incubator at 37 °C. Compounds 1–6 were added to the plate wells after 24 h and incubated for 72 h. Adriamycin (ADM) was used as the positive control, and DMSO as the blank control. The MTT solution was added after 72 h incubation, followed by incubation for 4 h. The cells were successively disrupted with 200 µL of DMSO for 10 min after the supernatant liquid was removed. The absorption was measured at 570 nm.

RAW264.7 cells = test: MTT cell viability of RAW264.7 cells (non-toxic concentrations); assay type: cell-based; conditions: 24 h
Experimental: (§2) RAW264.7 cells were cultured in DMEM with 10% fetal bovine serum (FBS) and 1% penicillin-streptomycin at 37 °C in 5% CO2. The MTT assay was used to evaluate cell viability. RAW264.7 cells were seeded on 96-well plates at 5 × 10^5 cells/well [26]. After incubation with compounds 1–6 at five concentrations ([…]) for 24 h, cells were treated with MTT (5 mg/mL) at 37 °C for 4 h. Then, the supernatant was removed and the […] was crystalised with DMSO. The absorbance was measured at 570 nm. The Griess reaction was applied to measure the accumulation of NO2^− in culture supernatant. RAW264.7 cells were treated with the compounds for 1 h then with the presence of LPS (1 μg/mL) for 24 h. The culture supernatant fluids (50 µL) and Griess reagent (50 µL) were mixed and incubated at room temperature. The absorbance was read at 570 nm after 15 min.

[2] = tested on: human lung cancer cells A549; test: MTT cytotoxic activity assay, A549; assay type: cell-based
Experimental: as §1

[3] = tested on: LPS-induced NO production in macrophage RAW264.7 cells; test: Inhibition of LPS-induced NO production (Griess reaction); assay type: cell-based; conditions: Mus musculus; for IC50: macrophage RAW264.7 cells, given as IC50, read-out: IC50 inhibition of LPS-stimulated NO production
Experimental: as §2

[4] = tested on: PI3K-Akt-mTOR signalling pathway; test: Western blot analysis of PI3K-Akt-mTOR signalling pathway in A549 cells; assay type: cell-based, human; conditions: 0.2 and 0.4 μM, 24 h
Experimental: Considering the significant cytotoxicities of penicillixanthone A (4), we evaluated its plausible molecular mechanism in A549 tumour cells using western blot analysis in Figure 5. Compound 4 (0.2 and 0.4 µM) was firstly pretreated for 24 h to test the PI3K expression.
Figure 5 The protein expression of the PI3K-Akt-mTOR signalling pathway of 4 was evaluated by western blot analysis. A549 cells were treated with 4 (0.2 and 0.4 μM) for 24 h, and the expression levels of PI3K, Akt and mTOR were tested by the responsible antibodies. […] Data are represented as the mean ± SD, n = 3, *** p < 0.01 vs. Control.

[5] = HepG2 cells, MTT, 72 h incubation, read-out: IC50 cytotoxicity HepG2
[6] = A549 cells, MTT, 72 h incubation, read-out: IC50 cytotoxicity A549
[7] = LPS (1 μg/mL)-induced NO production in RAW264.7 cells, 24 h, Griess reaction, read-out: EC50

Row | EC50 [3, 7] [µM] | IC50 [3] [µM] | Structure (SMILES) | IC50 [1, 5] [µM] | Non-Toxic Concentrations (RAW264.7 cells) [µM] | IC50 [2, 6] [µM] | IC50 ([1]; HepG2, Hep G2 cell line, read-out: IC50 cytotoxic activity Hep G2) [µM] | IC50 ([2]; A549 cell line, read-out: IC50 cytotoxic activity A549) [µM] | phospho-PI3K expression [4] | phospho-mTOR/Akt expression [4] | expression of PI3K, Akt and mTOR (PI3K-Akt-mTOR signalling pathway) ([4]; p < 0.01 vs. Control) | EC50 ([3]; RAW264.7, 24 h) [µM]
1 | 20.3 | 20.3 | CC(C)C(=O)c1cc2c([nH]1)C(=O)c1cc([C@H](O)C(C)C)[nH]c1C2=O [Compound 1, talaroterreusinone A] | 111 | 3.04 to 304.87 | 133 | – | – | – | – | – | –
2 | 20.6 | 20.6 | CO[C@H](c1cc2c([nH]1)C(=O)c1cc([C@H](OC)C(C)C)[nH]c1C2=O)C(C)C [Compound 3, terreusinone D] | 57.4 | 2.79 to 279.32 | 62.7 | – | – | – | – | – | –
3 | – | – | COc1cccc2c1C(=O)c1c(O)c3c(c(O)c1C2=O)C[C@@](O)(C(=O)CO)C[C@@H]3O[C@H]1C[C@H](N)[C@H](O)[C@H](C)O1 [adriamycin, Adriamycin, reference compound] | 1.2 | – | 3.5 | – | – | – | – | – | –
4 | 121 | – | CC(O)Cc1cc(O)c2c(c1)C(=O)c1cc(O)cc(O)c1C2=O (centres unmarked) [Compound 5, isorhodoptilometrin] | > 150 | 3.18 to 318.47 | > 150 | – | – | – | – | – | –
5 | – | – | COC(=O)[C@]12Oc3ccc(-c4ccc(O)c5c4O[C@@]4(C(=O)OC)C(=C(O)C[C@@H](C)[C@@H]4O)C5=O)c(O)c3C(=O)C1=C(O)C[C@@H](C)[C@@H]2O [Compound 4, penicillixanthone A] | 0.212 | – | 0.117 | 0.117 | 0.212 | decrease the phospho-PI3K expression | significantly suppressed | inhibiting the PI3K-Akt-mTOR signalling pathway; also recorded: inhibited the expression of PI3K, Akt and mTOR | 1
6 | 142 | – | C/C1=C\Cc2c(cc(O)c3c2C[C@@H](C)OC3=O)OC(C)(C)[C@@H](O)CC/C(C)=C/CC1 [Compound 6, chrysomutanin] | 43.9 | 2.41 to 241.54 | 42.5 | – | – | – | – | – | –
7 | 1.6 | – | Oc1ccc(/C=C/c2cc(O)cc(O)c2)cc1 [resveratrol, reference compound] | – | 0.43 to 109.52 | – | – | – | – | – | – | –
8 | 30.7 | 30.7 | CO[C@@H](c1cc2c([nH]1)C(=O)c1cc([C@H](O)C(C)C)[nH]c1C2=O)C(C)C [Compound 2, Talaroterreusinone B] | 84.7 | 2.90 to 190.69 | 98.8 | – | – | – | – | – | –
